# In patent US6558954B1, “Phenotypic conversion of cells mediated by external guide sequences” (priority 1996, dated 2003):
# System: bacterial species tested
# Test: TMP-mediated delivery of EGS, overall statement for the bacterial species tested
# Type: cell-based
# Details: E. coli, P. aeruginosa, S. aureus, B. subtilis (FIG. 2)
# Description: The results in Example 1 indicate enhanced delivery of a nucleic acid to the Gram negative organism E. coli. […] Staphylococcus aureus (Gram positive), Pseudomonas aeruginosa (Gram negative) and Bacillus subtilis (Gram positive) were obtained from the ATCC and grown overnight. The bacteria were washed with TB and resuspended to give an OD of 1.0. TMP/EGS complexes were set up as in Example 1 and delivered to the cells.
# The cells were washed three times with TB and then treated with lysozyme solutions with EDTA (for Gram negative) or without EDTA (for Gram positive) according to the protocol of Merchant et al., J. Photochem. Photobiol. B: Biol. 32:153-157 (1996). The amount of EGS present in the cell pellet and the cell wall fraction was calculated following scintillation counting.
compound,measurement,value
"C[n+]1ccc(-c2c3nc(c(-c4cc[n+](C)cc4)c4ccc([nH]4)c(-c4cc[n+](C)cc4)c4nc(c(-c5cc[n+](C)cc5)c5ccc2[nH]5)C=C4)C=C3)cc1 [TMP, tetra meso (n-methyl 4-pyridyl)porphine]",ability of TMP to deliver EGS,able to deliver EGS to the bacterial species tested
